Experimental data as given in patent publication US20240246954A1, “COMPOSITIONS AND METHODS FOR INHIBITING KRAS” (TheRas, Inc., priority 2021, published 2024).

What was measured:
[1] = biological target: T1, Avi-KRAS G12D/Q25A (1-169) GppNHp/3×FLAG-PI3KCA (157-299) (Homo sapiens, UniProt P01116, G12D/Q25A); test: HTRF PI3KCA-KRAS G12D/Q25A-GppNHp disruption assay; type: biochemical; settings: 1 h incubation
T1 construct: Avi-KRAS G12D/Q25A (1-169) GppNHp
Procedure: (§1) The HTRF assay employed the following protocol:
(§2) Compounds were dispensed in assay plate (384-well, Grenier Bione #784075) using Echo (model 555) with dose response settings: 200 nL final volume, titration from 100 μM as a 10-point dilution series. Protein mix was prepared in assay buffer, and dispensed on plates, 10 μL per well, then incubated for 1 h at room temperature, with 700 rpm shaking. Reagents mix was prepared and dispensed on plates, 10 μL per well, then incubated for 1 h at room temperature, with 700 rpm shaking.
(§3) Plates were analyzed on an Envision plate reader using the following setting: Excitation 320 nm, Bandwidth […]; Emission 615 nm, Bandwidth […], Gain 100%, Flashes 100, Lag 60 μs. Data was reported as percentage of activity, with DMSO as 100%. Data was plotted and analyzed using Prism 8.

[2] = biological target: T2, Avi-KRAS G12D (1-169) GppNHp/RAF1 RBD-3×FLAG (52-151) (Homo sapiens, UniProt P01116, G12D); test: HTRF Raf1-KRAS G12D-GppNHp disruption assay; type: biochemical; settings: 1 h incubation
T2 construct: Avi-KRAS G12D (1-169) GppNHp
Procedure: as §1, §2, §3

T1 sequence (P01116 1-169 isoform P01116-2 G12D/Q25A limits assumed): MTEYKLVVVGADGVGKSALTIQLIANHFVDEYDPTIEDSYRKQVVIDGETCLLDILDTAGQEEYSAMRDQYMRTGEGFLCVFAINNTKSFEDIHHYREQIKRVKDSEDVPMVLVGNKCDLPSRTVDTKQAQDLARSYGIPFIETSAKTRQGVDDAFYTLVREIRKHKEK
T2 sequence (P01116 1-169 isoform P01116-2 G12D limits assumed): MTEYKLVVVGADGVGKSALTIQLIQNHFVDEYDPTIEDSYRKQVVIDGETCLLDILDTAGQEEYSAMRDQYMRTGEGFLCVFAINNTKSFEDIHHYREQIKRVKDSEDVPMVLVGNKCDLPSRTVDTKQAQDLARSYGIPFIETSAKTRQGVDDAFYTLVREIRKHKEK

How did the IC50 [1] turn out when CN1CCC[C@H]1COc1nc(NC2CCNCC2)c2cc(Cl)c(-c3ccc(F)c4sc(N)nc34)c(F)c2n1 [Compound 91] was run?
Its IC50 is 1 to 10 µM.

And the IC50 [2]?
Its IC50 is 1 to 10 µM.

Which IC50 [1] does the source give for CN1CCC[C@H]1COc1nc(N(C2CC2)C2CNC2)c2cc(Cl)c(-c3ccc(F)c4sc(N)nc34)c(F)c2n1 [Compound 152] here?
The IC50 was 10 to 30 µM.

What about the IC50 [2] of the same molecule?
The IC50 was 10 to 30 µM.

Which results are given for CN(c1nc(OCC23CCCN2CCC3)nc2c(F)c(-c3ccc(F)c4sc(N)nc34)c(-c3ccoc3)cc12)C1CN(C(N)=O)C1 [Compound 151]?
IC50 [1]: 10 to 30 µM; IC50 [2]: 1 to 10 µM

Which results are given for C[C@@H]1CN(c2nc(OC[C@]34CCCN3C[C@H](F)C4)nc3c(F)c(-c4ccc(F)c5sc(N)nc45)c(C(F)(F)F)cc23)[C@@H](C)CN1 [Compound 214]?
IC50 [1]: 10 to 30 µM; IC50 [2]: 0.1 to 1 µM

Which results are given for NCC(=O)N1CC[C@@H]2[C@H]1CN2c1nc(OCC23CCCN2CCC3)nc2c(F)c(-c3ccc(F)c4sc(N)nc34)c(C(F)(F)F)cc12 [Compound 202]?
IC50 [1]: 1 to 10 µM; IC50 [2]: 0.1 to 1 µM

What does the source list for CN(c1nc(OCC23CCCN2CCC3)nc2c(F)c(-c3ccc(F)c4sc(N)nc34)c(C(F)(F)F)cc12)[C@@H]1CCN(C(=O)CN)C1 (atropisomer, axis not shown) [Compound 277]?
IC50 [1]: 1 to 10 µM; IC50 [2]: 1 to 10 µM

With CN(c1nc(OCC23CCCN2CCC3)nc2c(F)c(-c3ccc(F)c4sc(N)nc34)c(C(F)(F)F)cc12)[C@@H]1CCN(C(=O)C2CN2)C1 (stereo partly drawn) [Compound 230] as the molecule, how does the IC50 [1] read?
The IC50 was 1 to 10 µM.

And the IC50 [2]?
The IC50 was 1 to 10 µM.

Which IC50 [1] does the source give for NCC(=O)N1C2CCC1CN(c1nc(OC[C@@]34CCCN3C[C@H](F)C4)nc3c(F)c(-c4ccc(F)c5sc(N)nc45)c(C(F)(F)F)cc13)C2 [Compound 272] here?
The IC50 was 1 to 10 µM.

And the IC50 [2]?
Its IC50 is 0.1 to 1 µM.

What does the source list for CCN(c1nc(OC[C@@H]2CCCN2C)nc2c(F)c(-c3ccc(F)c4sc(N)nc34)c(Cl)cc12)C1CN(C(=O)CN)C1 [Compound 197]?
IC50 [1]: 10 to 30 µM; IC50 [2]: 10 to 30 µM

Which IC50 [1] does the source give for C[C@@H]1CNCCN1c1nc(OC[C@]23CCCN2C[C@H](F)C3)nc2c(F)c(-c3ccc(F)c4sc(N)nc34)c(C(F)(F)F)cc12 [Compound 209] here?
Its IC50 is 1 to 10 µM.

And the IC50 [2]?
The IC50 was 0.1 to 1 µM.

What does the source list for Nc1nc2c(-c3c(OC(F)(F)F)cc4c(N5CC6CC5CN6)nc(OC[C@@]56CCCN5C[C@H](F)C6)nc4c3F)ccc(F)c2s1 (stereo partly drawn) [Compound 240]?
IC50 [1]: 1 to 10 µM; IC50 [2]: 1 to 10 µM

What does the source list for Nc1nc2c(-c3c(-c4ccoc4)cc4c(N5CC6CCC(C5)N6)nc(OCC56CCCN5CCC6)nc4c3F)ccc(F)c2s1 [Compound 159]?
IC50 [1]: 10 to 30 µM; IC50 [2]: 0.1 to 1 µM

What does the source list for CN1C[C@H](F)C[C@H]1COc1nc(NC2CNC2)c2cc(Cl)c(-c3ccc(F)c4sc(N)nc34)c(F)c2n1 [Compound 106]?
IC50 [1]: 1 to 10 µM; IC50 [2]: 1 to 10 µM

With CN1CCC[C@H]1COc1nc(N2CCN(C(=O)CN)CC2)c2cc(-c3ccoc3)c(-c3ccc(F)c4sc(N)nc34)c(F)c2n1 [Compound 144, 2-amino-1-(4-(7-(2-amino-7-fluorobenzo[d]thiazol-4-yl)-8-fluoro-6-(furan-3-yl)-2-(((S)-1-methylpyrrolidin-2-yl)methoxy)quinazolin-4-yl)piperazin-1-yl)ethan-1-one] as the molecule, how does the IC50 [1] read?
Its IC50 is 10 to 30 µM.

And the IC50 [2]?
Its IC50 is 10 to 30 µM.

CN1CCC[C@H]1COc1nc(N2CCNCC2)c2cc(CC#N)c(-c3ccc(F)c4sc(N)nc34)c(F)c2n1 [Compound 175, 2-[7-(2-amino-7-fluoro-1,3-benzothiazol-4-yl)-8-fluoro-2-[[(2S)-1-methylpyrrolidin-2-yl]methoxy]-4-piperazin-1-yl-quinazolin-6-yl]acetonitrile] was tested. Which IC50 [1] did it give?
The IC50 was 1 to 10 µM.

And the IC50 [2]?
Its IC50 is 10 to 30 µM.

How did the IC50 [1] turn out when Nc1nc2c(-c3c(Cl)cc4c(NC5CNC5)nc(OCC56CCCN5CCC6)nc4c3F)ccc(F)c2o1 [Compound 192] was run?
The IC50 was 1 to 10 µM.

And the IC50 [2]?
Its IC50 is 1 to 10 µM.

What does the source list for NCC(=O)N1CCN(c2nc(OC[C@]34CCCN3C[C@H](F)C4)nc3c(F)c(-c4ccc(F)c5sc(N)nc45)c(C(F)(F)F)cc23)CC1 [Compound 181]?
IC50 [1]: 1 to 10 µM; IC50 [2]: 1 to 10 µM

With CN1CCC1COc1nc(NC2CNC2)c2cc(Cl)c(-c3ccc(F)c4sc(N)nc34)c(F)c2n1 (stereo not drawn) [Compound 105] as the molecule, how does the IC50 [1] read?
The IC50 was 10 to 30 µM.

And the IC50 [2]?
Its IC50 is 10 to 30 µM.
